Entries after “also recorded” stand apart in the source; their conditions may differ.
Experiments:
LNcap = assay: G6 sensitivity of prostate cell line LNcap (p53 WT); format: cell-based; conditions: listed as Rp53-1
ColoHSR = assay: G6 sensitivity of colon cell line ColoHSR (p53 Mt); format: cell-based; conditions: listed as Rp53-1
MDA-435 = assay: G6 sensitivity of breast cancer cells MDA-435 (p53 Mt); format: cell-based, human; conditions: MDA-435, breast, listed as Rp53-1
Protocol: To assess the ability of the small molecule compound Rp53-1 to mimic the transcription-promoting functions of p53 leading to Bax expression and induction of cell death, p53-mutated MDA-MB-435 and p53-wild-type MCF-7 human breast cancer cells were treated with Rp53-1. […] Lack of toxicity in cells generating normal p53 activity (all other human cells) would reduce possible side effects. Inherent in the initial drug design was a strategy to develop a therapy that targets mutant p53 containing cells and that would leave healthy cells expressing normal p53 unaffected (FIG. 3).

[1] = tested on: p53 Reporter in p53 Mt and Null Cells; assay: p53 reporter in p53 Mt and Null cells; format: cell-based
[2] = tested on: human osteosarcoma xenografted nude mice; assay: G6 treatment of human osteosarcoma xenografted nude mice; format: in vivo
Source text: Initial trials of G6 in human osteosarcoma xenografted nude mice have shown promise (FIG. 10). Mice bearing p53 abnormal tumors have responded well to G6. […] Further mouse studies are currently underway.

Lovo = assay: G6 sensitivity of colon cell line Lovo (p53 WT); format: cell-based; conditions: listed as Rp53-1
[3] = tested on: wild type cells from corresponding normal tissue; assay: G6 treatment of wild type cells from corresponding normal tissue; format: cell-based
Source text: (§1) Inherent in the initial drug design was a strategy to develop a therapy that targets mutant p53 containing cells and that would leave healthy cells expressing normal p53 unaffected (FIG. 3).

breast cancer cells = assay: Single pulse treatment of breast cancer cells with G6; format: cell-based; conditions: single pulse of G6 in the nanomolar range
Source text: Thus G6 appears to be a potent treatment.

Saos-2 = assay: G6 sensitivity of osteosarcoma cell line Saos-2 (p53 null); format: cell-based; conditions: Saos-2, osteosarcoma, listed as Rp53-1
DU145 = assay: G6 sensitivity of prostate cell line DU145 (p53 Mt); format: cell-based; conditions: listed as Rp53-1
[4] = tested on: p53/Bax reporter in HEK293T cells; assay: p53/Bax luciferase reporter system in HEK293T cells; format: cell-based
Source text: To identify p53 mimics, we developed a live mammalian cell system that reports the promotion of the expression of the pro-apoptotic Bax protein. The bax promoter consists of a 372 nucleotide 5′ UTR, a TATAA sequence, and several consensus sequences that bind p53, resulting in up-regulation of Bax expression (see, e.g., FIG. 1). By expressing these sites upstream of the gene encoding luciferase in HEK293T cells, we have established a novel set of reporter cell lines. These cells provide a system which allows identification of both direct activators of Bax expression and replacements of an apoptotic function of p53. In initial studies, cotransfection of a p53 expression plasmid with a reporter bearing oligomerized consensus binding sites yielded strongly luminescent cells, whereas cotransfection with an irrelevant plasmid gave no luminescence. […] By employing the Multi-Probe H liquid handling robotic system and the ultra-sensitive Top-Count luminometer, high-speed screening of thousands of compounds has been enabled at the Buck Institute. We obtained and screened a 2000 compound small molecule library made available by the National Cancer Institute in our p53 reporter system in HEK293T cells.

[5] = tested on: p53 defective tumor cell line; assay: G6 treatment of p53 defective tumor cell lines; format: cell-based; conditions: every p53 defective tumor cell line treated
Source text: as §1

SW480 = assay: G6 sensitivity of colon cell line SW480 (p53 Mt); format: cell-based; conditions: listed as Rp53-1
HT29 = assay: G6 sensitivity of colon cell line HT29 (p53 Mt); format: cell-based; conditions: listed as Rp53-1
PC3 = assay: G6 sensitivity of prostate cell line PC3 (p53 null); format: cell-based; conditions: listed as Rp53-1

Cc1cc(OCc2nc(N)nc(N)c2-c2ccc(Cl)c(Cl)c2)ccc1[N+](=O)[O-] [G6]
G6 Sensitivity (LNcap): resistant
G6 Sensitivity (ColoHSR): sensitive
G6 Sensitivity (MDA-435): sensitive
induction of p53 Reporter [1]: induces p53 Reporter
adverse side effects ([2]; human osteosarcoma xenografted nude mice treated with G6): none of the mice have shown adverse side effects
tumor regression ([2]; nude mice implanted with human osteosarcoma tissue, p53 abnormal tumors): complete regression of tumor
G6 Sensitivity (Lovo): resistant
effect of G6 on wild type cells [3]: unaffected
activation of the cell death program / drug efficacy (breast cancer cells): complete drug efficacy; also recorded: sufficient to activate the cell death program
G6 Sensitivity (Saos-2): sensitive
G6 Sensitivity (DU145): sensitive
expression of luciferase levels relative to transfected wild-type p53 ([4]; high concentrations (10 μM)): greater than transfected wild-type p53
luciferase expression and activity (p53 reporter) ([4]; listed as Rp53-1): activates the p53/Bax reporter; also recorded: significant levels of luciferase activity
susceptibility to G6 [5]: showed susceptibility
G6 Sensitivity (SW480): sensitive
G6 Sensitivity (HT29): sensitive
G6 Sensitivity (PC3): sensitive

Source: patent US9789121B2, “Small molecules that replace or agonize p53 function” (BUCK INSTITUTE, priority 2004, dated 2017)
